From patent publication US20260078135A1, “POLYCYCLIC QUINAZOLINES FOR INHIBITION OF ERBB2” (Enliven Inc., priority 2022, published 2026) come the findings set out here.

One assay has as its target Ba/F3 ERBB2 YVMA (Homo sapiens, UniProt P04626, DUP772-775, cells depend on it). In words: Cell viability assay (CellTiter Glo), Ba/F3 cells engineered to express ERBB2 YVMA. The format is cell-based, mouse. Particulars: Ba/F3 cells expressing human ERBB2 YVMA mutant, 72 hours, read-out: Ba/F3 ERBB2 YVMA, IC50. The protocol:
Cells were treated with compounds, and cell viability was measured as a metric of kinase inhibition.
BT-474, A431, MDA-MB-175VII, NCI-H1781, MCF7, and Ba/F3 cell lines were tested. The Ba/F3 cell line is IL-3-dependent mouse cell line derived from the C3H mouse strain. Ba/F3 cell lines were engineered to express human ERBB2 or EGFR kinases, rendering the cells IL-3 independent. The lines were generated via retroviral transduction utilizing a Moloney murine leukemia virus (MMLV) promoter, and constructs are stably integrated into the cell genome. The sequences of the ERBB2 and EGFR genes used were NCBI Reference Sequences NM_004448.3 and NM_005228.3, respectively.
BT-474, A431, MDA-MB-175VII, NCI-H1781 and MCF7 cells were grown in the appropriate growth medium as described in Table B2 below, and harvested at 50-80% confluence. BT-474, A431, MDA-MB-175VII, NCI-H1781 and MCF7 cells were counted and seeded at 2,000 or 1,500 cells per well in 384-well tissue culture plates (see Table B2). Similarly, Ba/F3 cell lines engineered to express EGFR, ERBB2, or ERBB2 mutants were grown, harvested, counted and seeded at 3000 cells per well in 96-well plates. A subset of wells contained media only (low control, “LC”).
Table B1 provides the growth media and number of cells seeded per well for the each cell line.
Compounds were dissolved in DMSO and serially diluted. Serially-diluted compound or a DMSO only control (high control, “HC”) was added to the plated cells in each well. Compounds were tested at concentrations of about 10 μM to 0.51 nM, using three-fold dilutions. The final proportion of DMSO never exceeded 0.1%.
Plates were placed in a 37° C., 5% CO2 incubator for 72 hours. Plates were then removed from the incubator and equilibrated for 15 minutes at room temperature. 40 μl of CellTiter Glo reagent (Promega) was added to measure the relative level of metabolically active cells by quantifying intracellular ATP concentrations. Plates were incubated for 30 minutes at room temperature, and luminescence was measured. Percent viability was normalized to a vehicle control only using the following formula: % viability=100×(Lumsample−LumLC)/(LumHC−LumLC). Graphical curves were fitted using a nonlinear regression model with a sigmoidal dose response.
Background: Cellular ATP, detected with luciferase, serves as a proxy for viable cell number.

In assay [1] the target is T1, phosphorylated EGFR (pEGFR) (Homo sapiens, UniProt P00533).
T1 construct: performed to measure phosphorylated EGFR levels using A431 cells (10% FBS); endogenous in cells; host or cells: A431
T1 sequence (P00533 25-1210): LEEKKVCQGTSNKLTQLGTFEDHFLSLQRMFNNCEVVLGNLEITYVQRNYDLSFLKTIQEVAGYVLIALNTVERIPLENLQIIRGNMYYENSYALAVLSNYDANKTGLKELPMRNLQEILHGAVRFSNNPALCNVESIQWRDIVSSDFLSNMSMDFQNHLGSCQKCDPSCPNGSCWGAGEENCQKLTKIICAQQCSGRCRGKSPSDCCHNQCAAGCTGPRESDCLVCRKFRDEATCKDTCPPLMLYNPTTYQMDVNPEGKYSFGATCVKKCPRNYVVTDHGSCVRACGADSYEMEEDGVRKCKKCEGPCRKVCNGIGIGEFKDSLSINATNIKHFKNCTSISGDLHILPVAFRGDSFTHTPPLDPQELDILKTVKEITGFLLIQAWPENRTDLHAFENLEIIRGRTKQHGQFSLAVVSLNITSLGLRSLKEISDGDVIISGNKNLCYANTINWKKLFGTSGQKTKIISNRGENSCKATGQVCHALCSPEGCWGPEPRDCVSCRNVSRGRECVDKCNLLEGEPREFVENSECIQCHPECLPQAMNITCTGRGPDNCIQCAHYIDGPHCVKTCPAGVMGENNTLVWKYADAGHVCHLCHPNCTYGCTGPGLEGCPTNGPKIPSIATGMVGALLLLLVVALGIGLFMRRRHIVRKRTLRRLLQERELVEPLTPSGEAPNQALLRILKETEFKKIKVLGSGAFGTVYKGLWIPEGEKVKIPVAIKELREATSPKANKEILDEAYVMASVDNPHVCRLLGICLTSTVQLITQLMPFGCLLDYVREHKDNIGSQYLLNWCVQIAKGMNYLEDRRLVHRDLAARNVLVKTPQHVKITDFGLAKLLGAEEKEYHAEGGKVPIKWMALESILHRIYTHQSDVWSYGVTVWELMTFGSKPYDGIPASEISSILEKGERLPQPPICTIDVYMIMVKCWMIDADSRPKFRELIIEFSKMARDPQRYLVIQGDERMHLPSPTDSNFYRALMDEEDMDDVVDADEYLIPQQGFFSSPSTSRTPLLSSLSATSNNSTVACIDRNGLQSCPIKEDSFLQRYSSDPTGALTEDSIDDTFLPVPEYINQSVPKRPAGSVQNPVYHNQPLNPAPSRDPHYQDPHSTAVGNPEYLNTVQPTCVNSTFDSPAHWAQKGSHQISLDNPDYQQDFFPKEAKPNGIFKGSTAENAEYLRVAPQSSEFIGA
In words: Detection of phosphorylated EGFR (pEGFR) by AlphaLISA in EGF-stimulated A431 cells. In kind it is cell-based. As to conditions: A431 cells (10% FBS), 4 hours incubation, EGF 30 ng/mL for 10 minutes. In short, it runs like this:
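A431 cells in 10% FBS were preincubated with compound for 4 h at 37 °C, then stimulated with 30 ng/mL EGF for 10 min and lysed. pEGFR read by AlphaLISA. % inhibition normalised to DMSO and staurosporine controls; IC50 from four-parameter curve fit.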
(In general: In Alpha technology, singlet oxygen from a donor bead excites a nearby acceptor bead.)

Assay [2] deals with T2, phosphorylated ERBB2 (pERBB2) (Homo sapiens, UniProt P04626).
T2 construct: endogenous in cells; host or cells: BT-474
T2 sequence (P04626 23-1255): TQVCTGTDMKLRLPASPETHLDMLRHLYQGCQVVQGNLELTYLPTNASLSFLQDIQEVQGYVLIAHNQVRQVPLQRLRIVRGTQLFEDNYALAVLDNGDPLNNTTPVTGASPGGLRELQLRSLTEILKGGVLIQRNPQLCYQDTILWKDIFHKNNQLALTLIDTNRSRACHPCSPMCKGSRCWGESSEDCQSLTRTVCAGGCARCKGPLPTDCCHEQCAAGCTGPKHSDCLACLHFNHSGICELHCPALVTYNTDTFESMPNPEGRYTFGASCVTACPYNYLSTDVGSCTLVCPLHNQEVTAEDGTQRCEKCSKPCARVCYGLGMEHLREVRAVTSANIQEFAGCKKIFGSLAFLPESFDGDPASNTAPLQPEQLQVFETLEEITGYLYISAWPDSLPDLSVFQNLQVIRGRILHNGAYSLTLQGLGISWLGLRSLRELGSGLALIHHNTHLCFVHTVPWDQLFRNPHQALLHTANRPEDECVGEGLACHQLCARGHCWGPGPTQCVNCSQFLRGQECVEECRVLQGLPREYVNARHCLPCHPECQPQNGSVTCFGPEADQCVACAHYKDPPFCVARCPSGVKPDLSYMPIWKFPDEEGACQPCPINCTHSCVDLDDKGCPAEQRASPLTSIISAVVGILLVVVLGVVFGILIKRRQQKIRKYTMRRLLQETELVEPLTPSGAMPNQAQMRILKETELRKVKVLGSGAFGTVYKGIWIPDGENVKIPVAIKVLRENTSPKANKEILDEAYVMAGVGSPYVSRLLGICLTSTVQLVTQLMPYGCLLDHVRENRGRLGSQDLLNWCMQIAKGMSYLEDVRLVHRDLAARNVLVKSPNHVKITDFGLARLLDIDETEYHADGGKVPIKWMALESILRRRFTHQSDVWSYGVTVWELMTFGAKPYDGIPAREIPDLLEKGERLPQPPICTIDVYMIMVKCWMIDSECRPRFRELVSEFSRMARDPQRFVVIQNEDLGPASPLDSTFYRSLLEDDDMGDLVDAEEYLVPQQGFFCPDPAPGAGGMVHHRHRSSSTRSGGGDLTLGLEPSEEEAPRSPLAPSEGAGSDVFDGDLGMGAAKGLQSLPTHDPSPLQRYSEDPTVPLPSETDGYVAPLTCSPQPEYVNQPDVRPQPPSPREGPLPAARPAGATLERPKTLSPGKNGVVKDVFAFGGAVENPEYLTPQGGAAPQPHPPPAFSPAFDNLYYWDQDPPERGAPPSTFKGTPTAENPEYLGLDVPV
The experiment in a line: Detection of phosphorylated ERBB2 (pERBB2) by ELISA in BT-474 cells. In kind it is cell-based. Particulars: four hour incubation. In short, it runs like this: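 BT-474 cells were treated with compounds (fourfold dilutions, 10 μM to 0.01 nM final) for 4 h at 37 °C, then lysed. pERBB2 in lysates was quantified by ELISA with an HRP anti-phosphotyrosine detection antibody and TMB read at 450 nm; % relative activity was normalized to no-cell and 0.1% DMSO controls.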
A general note: ELISA stands for enzyme-linked immunosorbent assay.

Counter-ions that a name gives are not always drawn.

Sequence of Ba/F3 ERBB2 YVMA (P04626 with tags, fused parts or gaps DUP772-775): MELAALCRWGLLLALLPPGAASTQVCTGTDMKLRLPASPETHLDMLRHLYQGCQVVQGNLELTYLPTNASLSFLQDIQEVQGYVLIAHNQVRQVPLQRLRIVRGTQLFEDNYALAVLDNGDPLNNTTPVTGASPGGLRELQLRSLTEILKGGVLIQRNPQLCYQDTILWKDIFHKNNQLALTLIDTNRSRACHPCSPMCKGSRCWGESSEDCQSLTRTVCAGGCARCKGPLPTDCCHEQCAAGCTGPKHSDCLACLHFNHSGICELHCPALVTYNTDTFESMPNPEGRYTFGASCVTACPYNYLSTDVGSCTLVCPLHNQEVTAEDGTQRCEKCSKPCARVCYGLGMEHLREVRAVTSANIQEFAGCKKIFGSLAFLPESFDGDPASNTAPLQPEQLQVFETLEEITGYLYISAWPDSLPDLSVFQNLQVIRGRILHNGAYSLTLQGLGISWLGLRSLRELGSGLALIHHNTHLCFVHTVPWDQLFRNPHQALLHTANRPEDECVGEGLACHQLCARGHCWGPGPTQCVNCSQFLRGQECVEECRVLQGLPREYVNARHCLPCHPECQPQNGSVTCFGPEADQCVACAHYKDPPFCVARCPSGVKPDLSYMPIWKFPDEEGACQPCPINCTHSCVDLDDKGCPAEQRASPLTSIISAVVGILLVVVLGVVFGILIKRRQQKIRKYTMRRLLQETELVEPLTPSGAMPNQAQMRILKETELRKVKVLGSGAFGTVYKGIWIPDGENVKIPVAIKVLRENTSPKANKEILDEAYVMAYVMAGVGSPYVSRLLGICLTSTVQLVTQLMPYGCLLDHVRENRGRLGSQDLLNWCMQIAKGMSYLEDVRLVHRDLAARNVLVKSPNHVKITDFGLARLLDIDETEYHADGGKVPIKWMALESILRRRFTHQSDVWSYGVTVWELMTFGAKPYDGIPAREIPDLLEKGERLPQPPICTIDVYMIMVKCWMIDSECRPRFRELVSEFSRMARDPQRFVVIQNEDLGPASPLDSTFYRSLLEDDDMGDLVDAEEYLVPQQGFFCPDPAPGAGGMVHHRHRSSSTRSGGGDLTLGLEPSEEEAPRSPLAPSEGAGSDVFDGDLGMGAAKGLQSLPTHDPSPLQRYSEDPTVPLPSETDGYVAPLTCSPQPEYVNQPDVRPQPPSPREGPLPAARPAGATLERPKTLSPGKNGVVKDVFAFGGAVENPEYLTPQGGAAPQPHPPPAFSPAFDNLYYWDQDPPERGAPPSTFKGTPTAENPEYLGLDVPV

For orientation: IC50 means the concentration that inhibits the measured activity by half. A higher IC50 goes with a need for much substance. As to `Cc1cc(Nc2ncnc3cc4c(cc23)N2CCN(C(=O)/C=C/CN(C)C)C[C@H]2CO4)ccc1Oc1ccc2c(c1)ncn2C` [Compound 11, (S,E)-4-(dimethylamino)-1-(11-((3-methyl-4-((1-methyl-1H-benzo[d]imidazol-5-yl)oxy)phenyl)amino)-1,2,4a,5-tetrahydropyrazino[1′,2′:4,5][1,4]oxazino[3,2-g]quinazolin-3(4H)-yl)but-2-en-1-one], the GI50 on Ba/F3 ERBB2 YVMA is 65.3 nM. The IC50 in assay [1] is 1180 nM; in assay [2], 73.3 nM.

On to `Cc1cc(Nc2ncnc3cc4c(cc23)N2CCN(C(=O)/C=C/CN(C)C)C[C@@H]2CO4)ccc1Oc1ccc2c(c1)ncn2C` [Compound 12, (R,E)-4-(dimethylamino)-1-(11-((3-methyl-4-((1-methyl-1H-benzo[d]imidazol-5-yl)oxy)phenyl)amino)-1,2,4a,5-tetrahydropyrazino[1′,2′:4,5][1,4]oxazino[3,2-g]quinazolin-3(4H)-yl)but-2-en-1-one], for which the GI50 at Ba/F3 ERBB2 YVMA came to 206 nM. For the same molecule, the IC50 in assay [1] worked out at 2840 nM; in assay [2] it was 83.7 nM.

`CC#CC(=O)N1CCN2c3cc4c(Nc5ccc(Oc6ccn7ncnc7c6)c(C)c5)ncnc4cc3OC[C@@H]2C1` [Compound 13, (S)-1-(11-((4-([1,2,4]triazolo[1,5-a]pyridin-7-yloxy)-3-methylphenyl)amino)-1,2,4a,5-tetrahydropyrazino[1′,2′:4,5][1,4]oxazino[3,2-g]quinazolin-3(4H)-yl)but-2-yn-1-one]: at Ba/F3 ERBB2 YVMA, the GI50 worked out at 6.24 nM. For the same molecule, the values for the concentration for half-maximal inhibition (IC50) in assay [1] and in assay [2] were 254 nM and 13 nM, respectively.

For `CC#CC(=O)N1CCN2c3cc4c(Nc5ccc(Oc6ccc7c(c6)ncn7C)c(C)c5)ncnc4cc3OC[C@@H]2C1` [Compound 14, (S)-1-(11-((3-methyl-4-((1-methyl-1H-benzo[d]imidazol-5-yl)oxy)phenyl)amino)-1,2,4a,5-tetrahydropyrazino[1′,2′:4,5][1,4]oxazino[3,2-g]quinazolin-3(4H)-yl)but-2-yn-1-one], the GI50 on Ba/F3 ERBB2 YVMA worked out at 14.4 nM. Moreover, the IC50 in assay [1] was determined as 545 nM; in assay [2] it was 82.8 nM.

Regarding `Cc1cc(Nc2ncnc3cc4c(nc23)N2CCN(C(=O)/C=C/CN(C)C)C[C@@H]2CO4)ccc1Oc1ccn2ncnc2c1` [Compound 15, (R,E)-1-(11-((4-([1,2,4]triazolo[1,5-a]pyridin-7-yloxy)-3-methylphenyl)amino)-1,2,4a,5-tetrahydropyrazino[1,2-d]pyrimido[4′,5′:5,6]pyrido[3,2-b][1,4]oxazin-3(4H)-yl)-4-(dimethylamino)but-2-en-1-one], the GI50 at Ba/F3 ERBB2 YVMA was 4.89 nM. Also, the IC50 was 284 nM in assay [1] and 6.93 nM in assay [2].

Consider `Cc1cc(Nc2ncnc3cc4c(nc23)N2CCN(C(=O)/C=C/CN(C)C)C[C@H]2CO4)ccc1Oc1ccn2ncnc2c1` [Compound 16, (S,E)-1-(11-((4-([1,2,4]triazolo[1,5-a]pyridin-7-yloxy)-3-methylphenyl)amino)-1,2,4a,5-tetrahydropyrazino[1,2-d]pyrimido[4′,5′:5,6]pyrido[3,2-b][1,4]oxazin-3(4H)-yl)-4-(dimethylamino)but-2-en-1-one], for which the GI50 on Ba/F3 ERBB2 YVMA worked out at 1.47 nM. Further, the 50% inhibitory concentration (IC50) worked out at 130 nM in assay [1] and 5.8 nM in assay [2].

Take `Cc1cc(Nc2ncnc3cc4c(nc23)N2CCN(C(=O)/C=C/CN(C)C)C[C@H]2CO4)ccc1Oc1ccc2c(c1)ncn2C` [Compound 17, (S,E)-4-(dimethylamino)-1-(11-((3-methyl-4-((1-methyl-1H-benzo[d]imidazol-5-yl)oxy)phenyl)amino)-1,2,4a,5-tetrahydropyrazino[1,2-d]pyrimido[4′,5′:5,6]pyrido[3,2-b][1,4]oxazin-3(4H)-yl)but-2-en-1-one]: the GI50 on Ba/F3 ERBB2 YVMA was determined as 5.11 nM. Moreover, the results for the IC50 in assay [1] and in assay [2] were 307 nM and 34.3 nM, respectively.

As to `Cc1cc(Nc2ncnc3ccc4c(c23)OC[C@H]2CN(C(=O)/C=C/CN(C)C)CCN42)ccc1Oc1ccn2ncnc2c1` [Compound 18, (R,E)-1-(4-((4-([1,2,4]triazolo[1,5-a]pyridin-7-yloxy)-3-methylphenyl)amino)-6a,7,9,10-tetrahydropyrazino[1′,2′:4,5][1,4]oxazino[2,3-f]quinazolin-8(6H)-yl)-4-(dimethylamino)but-2-en-1-one], the GI50 on Ba/F3 ERBB2 YVMA worked out at 223 nM. Moreover, the half-inhibitory concentration (IC50) was over 10000 nM in assay [1] and 240 nM in assay [2].

Regarding `Cc1cc(Nc2ncnc3ccc4c(c23)OC[C@@H]2CN(C(=O)/C=C/CN(C)C)CCN42)ccc1Oc1ccn2ncnc2c1` [Compound 19, (S,E)-1-(4-((4-([1,2,4]triazolo[1,5-a]pyridin-7-yloxy)-3-methylphenyl)amino)-6a,7,9,10-tetrahydropyrazino[1′,2′:4,5][1,4]oxazino[2,3-f]quinazolin-8(6H)-yl)-4-(dimethylamino)but-2-en-1-one formate], the GI50 at Ba/F3 ERBB2 YVMA is 5 nM. The 50% inhibitory concentration (IC50) worked out at 679 nM in assay [1] and 11.1 nM in assay [2].

Consider `C=CC(=O)N1CCN2c3ccc4ncnc(Nc5ccc(Oc6ccc7c(c6)ncn7C)c(C)c5)c4c3OC[C@H]2C1` [Compound 20, (R)-1-(4-((3-methyl-4-((1-methyl-1H-benzo[d]imidazol-5-yl)oxy)phenyl)amino)-6a,7,9,10-tetrahydropyrazino[1′,2′:4,5][1,4]oxazino[2,3-f]quinazolin-8(6H)-yl)prop-2-en-1-one], for which, at Ba/F3 ERBB2 YVMA, the GI50 turned out to be 19.7 nM. Moreover, the IC50 in assay [1] worked out at 150 nM; in assay [2], 27.5 nM.

On to `C=CC(=O)N1CCN2c3ccc4ncnc(Nc5ccc(Oc6ccc7c(c6)ncn7C)c(C)c5)c4c3OC[C@@H]2C1` [Compound 21, (S)-1-(4-((3-methyl-4-((1-methyl-1H-benzo[d]imidazol-5-yl)oxy)phenyl)amino)-6a,7,9,10-tetrahydropyrazino[1′,2′:4,5][1,4]oxazino[2,3-f]quinazolin-8(6H)-yl)prop-2-en-1-one], for which the GI50 on Ba/F3 ERBB2 YVMA is 16.2 nM. Moreover, the IC50 in assay [1] was determined as 575 nM; in assay [2] it was 22.7 nM.

In the case of `Cc1cc(Nc2ncnc3ccc4c(c23)OC[C@H]2CN(C(=O)/C=C/CN(C)C)CCN42)ccc1Oc1ccc2c(c1)ncn2C` [Compound 22, (R,E)-4-(dimethylamino)-1-(4-((3-methyl-4-((1-methyl-1H-benzo[d]imidazol-5-yl)oxy)phenyl)amino)-6a,7,9,10-tetrahydropyrazino[1′,2′:4,5][1,4]oxazino[2,3-f]quinazolin-8(6H)-yl)but-2-en-1-one], the GI50 on Ba/F3 ERBB2 YVMA was 2.12 nM. Also, the values for the half-inhibitory concentration (IC50) in assay [1] and in assay [2] were 544 nM and 22.8 nM, respectively.

With `Cc1cc(Nc2ncnc3ccc4c(c23)OC[C@@H]2CN(C(=O)/C=C/CN(C)C)CCN42)ccc1Oc1ccc2c(c1)ncn2C` [Compound 23, (S,E)-4-(dimethylamino)-1-(4-((3-methyl-4-((1-methyl-1H-benzo[d]imidazol-5-yl)oxy)phenyl)amino)-6a,7,9,10-tetrahydropyrazino[1′,2′:4,5][1,4]oxazino[2,3-f]quinazolin-8(6H)-yl)but-2-en-1-one], at Ba/F3 ERBB2 YVMA, the GI50 stood at 13.8 nM. For the same molecule, the half-inhibitory concentration (IC50) was 817 nM in assay [1] and 27.4 nM in assay [2].

Regarding `C=CC(=O)N1CCN2C[C@H]1COc1c2ccc2ncnc(Nc3ccc(Oc4ccn5ncnc5c4)c(C)c3)c12` [Compound 24, 1-((3S)-13-((4-([1,2,4]triazolo[1,5-a]pyridin-7-yloxy)-3-methylphenyl)amino)-2,3,5,6-tetrahydro-4H-3,7-methano[1,4,7]oxadiazonino[2,3-f]quinazolin-4-yl)prop-2-en-1-one], the GI50 at Ba/F3 ERBB2 YVMA was over 500 nM. The IC50 in assay [1] was over 10000 nM; in assay [2], 430 nM.
